Test results published in patent publication US20080058213A1, “Benzoxazole Compounds” (priority 2004, published 2008).

Experiments:
Format in all cases: in vivo
[1] = system: southern crabgrass (Digitaria ciliaris); test: Soil treatment test for upland field (Test Example 2): southern crabgrass; details: soil treatment before germination, examined after 3 weeks
From the text: (§1) Evaluation of the herbicidal effect is shown in the following six grades, by comparing the condition of untreated control and growth inhibition (%): • 0: 0%-less than 20% • 1: 20%-less than 40% • 2: 40%-less than 60% • 3: 60%-less than 80% • 4: 80%-less than 100% • 5: 100%.
(§2) Upland field soil was filled in 1/3,000 are pots, seeded with southern crabgrass (Digitaria ciliaris), common lambsquaters (Chenopodium album), slender amaranth (Amaranthus viridis), common purslane (Portulaca oleracea), velvetleaf (Abutilon theophrasti), wheat, corn and soybean. The seeds were covered up with the soil.
(§3) Wettable powders containing the object compounds (1) as identified in Table 1, which were formulated following Preparation Example 2, were diluted with adequate amount of water to secure the prescribed dose of the active ingredient, and uniformly sprayed onto the surface soil layer after the seeding and before germination of the weeds, at an application water of 15 liters per are.
(§4) After placing the test pots in a glasshouse which was kept at an average temperature of 25° C. for 3 weeks, the herbicidal effect was examined.
(§5) Evaluations of the herbicidal effect and phytotoxicity were made in the manner similar to those in the above Test Example 1.

[2] = system: common lambsquaters (Chenopodium album); test: Soil treatment test for upland field (Test Example 2): common lambsquaters; details: soil treatment before germination, examined after 3 weeks
From the text: as §1, §2, §3, §4, §5

[3] = system: slender amaranth (Amaranthus viridis); test: Soil treatment test for upland field (Test Example 2): slender amaranth; details: soil treatment before germination, examined after 3 weeks
From the text: as §1, §2, §3, §4, §5

[4] = system: common purslane (Portulaca oleracea); test: Soil treatment test for upland field (Test Example 2): common purslane; details: soil treatment before germination, examined after 3 weeks
From the text: as §1, §2, §3, §4, §5

[5] = system: velvetleaf (Abutilon theophrasti); test: Soil treatment test for upland field (Test Example 2): velvetleaf; details: soil treatment before germination, examined after 3 weeks
From the text: as §1, §2, §3, §4, §5

wheat [6] = test: Soil treatment test for upland field (Test Example 2): phytotoxicity to wheat; details: soil treatment before germination, examined after 3 weeks
From the text: (§6) Evaluation of phytotoxicity is shown in the following six grades, as compared with the condition of untreated control: • 0: normal growth • 1: little damaged • 2: low damaged • 3: medium damaged • 4: serious damaged • 5: complete killed.
as §2, §4

corn [7] = test: Soil treatment test for upland field (Test Example 2): phytotoxicity to corn; details: soil treatment before germination, examined after 3 weeks
From the text: as §6, §2, §4

soybean [8] = test: Soil treatment test for upland field (Test Example 2): phytotoxicity to soybean; details: soil treatment before germination, examined after 3 weeks
From the text: as §6, §2, §4

southern crabgrass = test: Foliage treatment test for upland field (Test Example 3): southern crabgrass; details: foliage treatment at 1.0-2.0 leaf stage of southern crabgrass, examined after 3 weeks
From the text: as §1
(§7) Compost mixed soil was filled in 1/3,000 are pots, seeded with southern crabgrass, common lambsquaters, slender amaranth, common purslane, velvetleaf, wheat, corn and soybean. The seeds were covered up with the soil and cultured in a glasshouse kept at 25° C. on the average.
(§8) Wettable powders containing the object compounds (1) as identified in Table 1, which were formulated following Preparation Example 2, were diluted with water to the prescribed dose of the active ingredient, and uniformly sprayed onto the weeds at 1.0-2.0 leaf stage of the southern crabgrass at an application water of 15 liters per are.
(§9) After placing the test pots in a grasshouse kept at 25° C. on the average for 3 weeks, the herbicidal effect was examined.
(§10) Evaluation of the herbicidal effect was conducted in the similar manner to Test Example 1.

common lambsquaters = test: Foliage treatment test for upland field (Test Example 3): common lambsquaters; details: foliage treatment at 1.0-2.0 leaf stage of southern crabgrass, examined after 3 weeks
From the text: as §1, §7, §8, §9, §10

slender amaranth = test: Foliage treatment test for upland field (Test Example 3): slender amaranth; details: foliage treatment at 1.0-2.0 leaf stage of southern crabgrass, examined after 3 weeks
From the text: as §1, §7, §8, §9, §10

common purslane = test: Foliage treatment test for upland field (Test Example 3): common purslane; details: foliage treatment at 1.0-2.0 leaf stage of southern crabgrass, examined after 3 weeks
From the text: as §1, §7, §8, §9, §10

velvetleaf = test: Foliage treatment test for upland field (Test Example 3): velvetleaf; details: foliage treatment at 1.0-2.0 leaf stage of southern crabgrass, examined after 3 weeks
From the text: as §1, §7, §8, §9, §10

wheat [9] = test: Foliage treatment test for upland field (Test Example 3): phytotoxicity to wheat; details: foliage treatment at 1.0-2.0 leaf stage of southern crabgrass, examined after 3 weeks
Experimental: as §6, §7, §9

corn [10] = test: Foliage treatment test for upland field (Test Example 3): phytotoxicity to corn; details: foliage treatment at 1.0-2.0 leaf stage of southern crabgrass, examined after 3 weeks
Experimental: as §6, §7, §9

soybean [11] = test: Foliage treatment test for upland field (Test Example 3): phytotoxicity to soybean; details: foliage treatment at 1.0-2.0 leaf stage of southern crabgrass, examined after 3 weeks
Experimental: as §6, §7, §9

[12] = system: barnyard grass (Echinochloa crusgalli); test: Weed control test for paddy field (Test Example 1): barnyard grass; details: paddy pots, treated at 1.0 leaf stage of barnyard grass, examined after 3 weeks
From the text: (§11) Paddy field soil was filled in 1/10,000 are pots, kneaded with adequate amounts of water and chemical fertilizer, seeded with barnyard grass (Echinochloa crusgalli), Monochoria (Monochoria vaginalis), Japanese bulrush (Scirpus juncoides) and flat sedge (Cyperus serotinus), and further transplanted with 2.0 leaf stage of rice plant. The pots were maintained under the water-filled condition to a depth of 3 cm.
(§12) Wettable powders containing the compounds (1) as identified in Table 1, which were formulated following Production Example 2, were diluted with adequate amount of water and applied to the pots dropwise with pippet at a prescribed dose of the active ingredients per are, at 1.0 leaf stage of the barnyard grass.
(§13) After placing the pots in a glasshouse which was controlled at an average temperature of 25° C. for 3 weeks, herbicidal effect was examined.
as §1

[13] = system: Monochoria (Monochoria vaginalis); test: Weed control test for paddy field (Test Example 1): Monochoria; details: paddy pots, treated at 1.0 leaf stage of barnyard grass, examined after 3 weeks
From the text: as §11, §12, §13, §1

[14] = system: Japanese bulrush (Scirpus juncoides); test: Weed control test for paddy field (Test Example 1): Japanese bulrush; details: paddy pots, treated at 1.0 leaf stage of barnyard grass, examined after 3 weeks
From the text: as §11, §12, §13, §1

[15] = system: flat sedge (Cyperus serotinus); test: Weed control test for paddy field (Test Example 1): flat sedge; details: paddy pots, treated at 1.0 leaf stage of barnyard grass, examined after 3 weeks
From the text: as §11, §12, §13, §1

rice plant = test: Weed control test for paddy field (Test Example 1): phytotoxicity to rice plant; details: paddy pots, treated at 1.0 leaf stage of barnyard grass, examined after 3 weeks
From the text: as §11, §12, §13, §6

| Structure (SMILES) | Herbicidal Effect southern crabgrass (southern crabgrass; dose 2.5 g ai/a) | Herbicidal Effect southern crabgrass (southern crabgrass; dose 5 g ai/a) | Herbicidal Effect Common lambsquatters (common lambsquaters; dose 2.5 g ai/a) | Herbicidal Effect Common lambsquatters (common lambsquaters; dose 5 g ai/a) | Herbicidal Effect slender amaranth (slender amaranth; dose 2.5 g ai/a) | Herbicidal Effect slender amaranth (slender amaranth; dose 5 g ai/a) | Herbicidal Effect common purslane (common purslane; dose 2.5 g ai/a) | Herbicidal Effect common purslane (common purslane; dose 5 g ai/a) | Herbicidal Effect velvetleaf (velvetleaf; dose 2.5 g ai/a) | Herbicidal Effect velvetleaf (velvetleaf; dose 5 g ai/a) | Phytotoxicity wheat (wheat [9]; dose 2.5 g ai/a) | Phytotoxicity wheat (wheat [9]; dose 5 g ai/a) | Phytotoxicity corn (corn [10]; dose 2.5 g ai/a) | Phytotoxicity corn (corn [10]; dose 5 g ai/a) | Phytotoxicity soybean (soybean [11]; dose 2.5 g ai/a) | Phytotoxicity soybean (soybean [11]; dose 5 g ai/a) | Herbicidal Effect Barnyard grass ([12]; dose 2.5 g ai/a) | Herbicidal Effect Barnyard grass ([12]; dose 5 g ai/a) | Herbicidal Effect Monochoria vaginalis ([13]; dose 2.5 g ai/a) | Herbicidal Effect Monochoria vaginalis ([13]; dose 5 g ai/a) | other results |
| --- | --- | --- | --- | --- | --- | --- | --- | --- | --- | --- | --- | --- | --- | --- | --- | --- | --- | --- | --- | --- | --- |
| FC(F)C(F)(F)COCC(=Cc1cccc(C(F)(F)F)c1)c1nc2cc(C(F)(F)F)ccc2o1 [Compound 87] | 4 (80%-less than 100%) | 5 (100%) | 5 (100%) | 5 (100%) | 5 (100%) | 5 (100%) | 5 (100%) | 5 (100%) | 4 (80%-less than 100%) | 5 (100%) | 0 | 1 | 0 | 1 | 1 | 1 | – | – | – | – | Herbicidal Effect southern crabgrass ([1]; dose 2.5 g ai/a): 4 (80%-less than 100%); Herbicidal Effect southern crabgrass ([1]; dose 5 g ai/a): 5 (100%); Herbicidal Effect common lambsquaters ([2]; dose 2.5 g ai/a): 5 (100%); Herbicidal Effect common lambsquaters ([2]; dose 5 g ai/a): 5 (100%); Herbicidal Effect slender amaranth ([3]; dose 2.5 g ai/a): 5 (100%); Herbicidal Effect slender amaranth ([3]; dose 5 g ai/a): 5 (100%); Herbicidal Effect common purslane ([4]; dose 2.5 g ai/a): 5 (100%); Herbicidal Effect common purslane ([4]; dose 5 g ai/a): 5 (100%); Herbicidal Effect velvetleaf ([5]; dose 2.5 g ai/a): 4 (80%-less than 100%); Herbicidal Effect velvetleaf ([5]; dose 5 g ai/a): 5 (100%); Phytotoxicity wheat (wheat [6]; dose 2.5 g ai/a): 0; Phytotoxicity wheat (wheat [6]; dose 5 g ai/a): 1; Phytotoxicity corn (corn [7]; dose 2.5 g ai/a): 0; Phytotoxicity corn (corn [7]; dose 5 g ai/a): 0; Phytotoxicity soybean (soybean [8]; dose 2.5 g ai/a): 0; Phytotoxicity soybean (soybean [8]; dose 5 g ai/a): 1 |
| CCOCC(=Cc1cccc(C(F)(F)F)c1)c1nc2cc(F)cc(F)c2o1 [Compound 112] | – | – | – | – | – | – | – | – | – | – | – | – | – | – | – | – | 4 (80%-less than 100%) | 5 (100%) | 5 (100%) | 5 (100%) | Herbicidal Effect Japanese bulrush ([14]; dose 2.5 g ai/a): 4 (80%-less than 100%); Herbicidal Effect Japanese bulrush ([14]; dose 5 g ai/a): 5 (100%); Herbicidal Effect Flat sedge ([15]; dose 2.5 g ai/a): 3 (60%-less than 80%); Herbicidal Effect Flat sedge ([15]; dose 5 g ai/a): 4 (80%-less than 100%); Phytotoxicity Rice plant (rice plant; dose 2.5 g ai/a): 0; Phytotoxicity Rice plant (rice plant; dose 5 g ai/a): 1 |
| COCC(=Cc1cccc(C(F)(F)F)c1)c1nc2cc(C(C)(C)C)ccc2o1 [Compound 151] | 4 (80%-less than 100%) | 5 (100%) | 5 (100%) | 5 (100%) | 5 (100%) | 5 (100%) | 5 (100%) | 5 (100%) | 3 (60%-less than 80%) | 4 (80%-less than 100%) | 0 | 0 | 0 | 0 | 0 | 0 | 4 (80%-less than 100%) | 5 (100%) | 5 (100%) | 5 (100%) | Herbicidal Effect Japanese bulrush ([14]; dose 2.5 g ai/a): 3 (60%-less than 80%); Herbicidal Effect Japanese bulrush ([14]; dose 5 g ai/a): 5 (100%); Herbicidal Effect Flat sedge ([15]; dose 2.5 g ai/a): 3 (60%-less than 80%); Herbicidal Effect Flat sedge ([15]; dose 5 g ai/a): 4 (80%-less than 100%); Phytotoxicity Rice plant (rice plant; dose 2.5 g ai/a): 0; Phytotoxicity Rice plant (rice plant; dose 5 g ai/a): 0 |
